Measured values from PubChem BioAssay (NCI).
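A five-concentration, 48-hour dose response in 96-well plates underlies each endpoint, interpolated linearly between surrounding concentrations. Abbreviation: GI50, concentration required for 50% inhibition of growth. TGI: total growth inhibition.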

Assays:
Test in all cases: growth of human tumour cells (NCI), 48 h
SNB-75 CNS = system: SNB-75 CNS
A498 renal = system: A498 renal
T-47D breast = system: T-47D breast
MOLT-4 leukemia = system: MOLT-4 leukemia
M14 melanoma = system: M14 melanoma
SK-MEL-5 melanoma = system: SK-MEL-5 melanoma
SN12C renal = system: SN12C renal
OVCAR-4 ovarian = system: OVCAR-4 ovarian
SW-620 colon = system: SW-620 colon
MDA-MB-231 breast = system: MDA-MB-231 breast

SMILES | GI50 (SNB-75 CNS) | TGI (SNB-75 CNS) | GI50 (A498 renal) | TGI (A498 renal) | GI50 (T-47D breast) | TGI (T-47D breast) | GI50 (MOLT-4 leukemia) | TGI (MOLT-4 leukemia) | GI50 (M14 melanoma) | TGI (M14 melanoma) | GI50 (SK-MEL-5 melanoma) | TGI (SK-MEL-5 melanoma) | GI50 (SN12C renal) | TGI (SN12C renal) | GI50 (OVCAR-4 ovarian) | TGI (OVCAR-4 ovarian) | GI50 (SW-620 colon) | TGI (SW-620 colon) | GI50 (MDA-MB-231 breast) | TGI (MDA-MB-231 breast)
COc1cc(C(=O)Nc2cc(OC)c3ccn(C)c3c2)cc2c1C[C@]1(C)CC[C@@H](O)C(C)(C)[C@H]1O2 | 0.0521 µM | 2.19 µM | 0.149 µM | 1.89 µM | 1.8 µM | 14.8 µM | 0.21 µM | 1.45 µM | 0.454 µM | 2.9 µM | 0.384 µM | 1.72 µM | 3.93 µM | > 100 µM | 4.14 µM | > 100 µM | 1.04 µM | 10 µM | 1.86 µM | 16.5 µM
Oc1cc2ccccc2c(-c2c(O)c(O)cc3ccccc23)c1O | 2.23 µM | 28.1 µM | 1.14 µM | 10.5 µM | 0.319 µM | 14.5 µM | 0.897 µM | 18.7 µM | 1.4 µM | 11.4 µM | 1.1 µM | 4.49 µM | 1.99 µM | 15.8 µM | 2.3 µM | 34.3 µM | 3.49 µM | 26.9 µM | 4.64 µM | 34.2 µM
CC(=O)Oc1ccc(/C(=C(\C)c2ccc(Cl)cc2)c2ccc(OCCN3CCCCC3)cc2)cc1 | 1.55 µM | 3.77 µM | 3.62 µM | 15.2 µM | 1.09 µM | 4.37 µM | 1.73 µM | 5.36 µM | 1.69 µM | 3.17 µM | 1.69 µM | 3.07 µM | 1.69 µM | 3.52 µM | 1.93 µM | 5.43 µM | 1.85 µM | 3.93 µM | 2.04 µM | 3.89 µM
COc1cc(-c2cc(-c3cc(OC)c(OC)c(OC)c3)nc3nc(N)[nH]c(=O)c23)ccc1Oc1ccnc2cc(Cl)ccc12 | 1.9 µM | > 100 µM | 16.3 µM | 86.4 µM | 5.22 µM | 58 µM | 2.78 µM | > 100 µM |  |  | 2.93 µM | 13.3 µM | 3.83 µM | 41.8 µM | 4.34 µM | > 100 µM | 1.35 µM | > 100 µM | 2.59 µM | 24.7 µM
CN(Cc1cc(Cl)cc(Cl)c1O)Cc1c(O)ccc2ccccc12 |  | 33.3 µM |  | 31 µM |  | 43 µM |  | 58.3 µM |  | 39.2 µM |  | 32 µM |  | 43.7 µM |  | 38.9 µM |  | > 100 µM |  | 32.2 µM
NCOC(=O)Cc1ccc(Br)cc1 |  | > 100 µM |  | > 100 µM |  | > 100 µM |  | > 100 µM |  | > 100 µM |  | > 100 µM |  | > 100 µM |  |  |  | > 100 µM |  | > 100 µM
NCC1OC(OC2C(CO)OC(OC3C(O)C(N)CC(N)C3OC3OC(CO)C(O)CC3N)C2O)C(N)C(O)C1OC1OC(CO)C(O)C(O)C1O (stereo not drawn) | > 50 mg/L | > 50 mg/L | > 50 mg/L | > 50 mg/L | > 50 mg/L | > 50 mg/L | > 50 mg/L | > 50 mg/L | > 50 mg/L | > 50 mg/L | > 50 mg/L | > 50 mg/L | > 50 mg/L | > 50 mg/L |  |  | > 50 mg/L | > 50 mg/L | > 50 mg/L | > 50 mg/L
CCN1Cc2nc3sc(C)c(C)c3c(=O)n2C=C1C | 10.2 µM | > 100 µM | 20.3 µM | > 100 µM | 4.17 µM | > 100 µM | 2.46 µM | 8.7 µM |  |  | 5.87 µM | 51.8 µM | 13.8 µM | 62.1 µM | 11.8 µM | > 100 µM | 2.75 µM | 12.6 µM | 8.14 µM | 24.7 µM
Clc1ccc(-c2cc(-c3ccccc3)nc(NCCNc3ccnc4cc(Cl)ccc34)n2)cc1 | 1.58 µM | 3.08 µM | 1.64 µM | 3.31 µM | 1.54 µM | 3.45 µM | 1.89 µM | 4.19 µM |  |  | 1.74 µM | 3.2 µM | 1.74 µM | 3.28 µM | 1.79 µM | 3.83 µM | 1.7 µM | 3.48 µM | 1.88 µM | 3.57 µM
Cn1c(NCC(O)CN2CCCC2)cc(=O)n(C)c1=O (stereo not drawn) | 76.2 µM | > 100 µM | > 100 µM | > 100 µM | > 100 µM | > 100 µM | > 100 µM | > 100 µM |  |  | > 100 µM | > 100 µM | > 100 µM | > 100 µM | > 100 µM | > 100 µM | > 100 µM | > 100 µM | > 100 µM | > 100 µM
CC1OC(OC2C(OC3CCC4(C)C(CCC5(C)C4CC=C4C6CC(C)(C)CCC6(C(=O)O)CCC45C)C3(C)CO)OCC(O)C2O)C(O)C(O)C1O (stereo not drawn) |  | 30.7 µM |  | 31.1 µM |  | 46.8 µM |  | 45.8 µM |  |  |  | 36.3 µM |  | 42 µM |  | 30.5 µM |  | 55.4 µM |  | 35.4 µM
